Assay results as given in the supplement of paper PMC10307832.

Columns and labels:
Assay in all cases: relative viability (nuclei count vs DMSO), 5 days (fraction); higher = more cells survive
[1] = compound: CC1=CC(=CC=C1)NC2=NC(=CS2)C3=CC=NC=C3 + CC(=O)c1c(C)c2cnc(Nc3ccc(N4CCNCC4)cn3)nc2n(C2CCCC2)c1=O [Palbociclib] (partner 0.5 µM)
How it was run: (§1)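 Values are medians from duplicate plates. Each reflects relative viability, defined as the nuclei count of treated wells over that of vehicle wells. Lung cancer cell lines in 1536-well plates were pin-tool dosed one day after seeding with one drug alone or with a fixed anchor-drug dose plus five library-drug doses (not always all listed) in √10 steps, then fixed, stained and imaged at 4× after 5 days.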

[2] = compound: Cc1ccc(NC(=O)c2ccc(CN3CCN(C)CC3)cc2)cc1Nc1nc(-c2cccnc2)cs1 [Masitinib] + CS(=O)(=O)N1CCN(Cc2cc3nc(-c4cccc5[nH]ncc45)nc(N4CCOCC4)c3s2)CC1 [Pictilisib] (partner 1 µM)
How it was run: as §1

[3] = compound: Cc1ccc(NC(=O)c2ccc(CN3CCN(C)CC3)cc2)cc1Nc1nc(-c2cccnc2)cs1 [Masitinib] + Nc1nc2[nH]cc(CCc3ccc(C(=O)N[C@@H](CCC(=O)O)C(=O)O)cc3)c2c(=O)[nH]1 [Pemetrexed] (partner 0.2 µM)
How it was run: as §1

[4] = compound: CC1=CC(=CC=C1)NC2=NC(=CS2)C3=CC=NC=C3 + Cc1nc(NC(=O)N2CCC[C@H]2C(N)=O)sc1-c1ccnc(C(C)(C)C(F)(F)F)c1 [Alpelisib] (partner 2 µM)
How it was run: as §1

| Cell Line | relative viability ([1]; first compound 0.08 µM) | relative viability ([1]; first compound 0.253 µM) | relative viability ([1]; first compound 0.8 µM) | relative viability ([1]; first compound 2.53 µM) | relative viability ([1]; first compound 8 µM) | relative viability ([2]; first compound 0.01 µM) | relative viability ([2]; first compound 0.1 µM) | relative viability ([2]; first compound 0.3162 µM) | relative viability ([2]; first compound 1 µM) | relative viability ([3]; first compound 0.01 µM) | relative viability ([3]; first compound 0.03162 µM) | relative viability ([3]; first compound 0.1 µM) | relative viability ([3]; first compound 0.3162 µM) | relative viability ([3]; first compound 1 µM) | relative viability ([4]; first compound 0.08 µM) | relative viability ([4]; first compound 0.253 µM) | relative viability ([4]; first compound 0.8 µM) | relative viability ([4]; first compound 2.53 µM) | relative viability ([4]; first compound 8 µM) | relative viability ([2]; first compound 0.03162 µM) |
| --- | --- | --- | --- | --- | --- | --- | --- | --- | --- | --- | --- | --- | --- | --- | --- | --- | --- | --- | --- | --- |
| NCI-H1993 | 0.594 | 0.604 | 0.476 | 0.554 | 0.533 | 0.859 | 1.05 | 0.778 | 0.825 | 0.622 | 0.58 | 0.582 | 0.483 | 0.502 | 0.683 | 0.683 | 0.719 | 0.644 | 0.619 |  |
| NCI-H2170 | 0.358 | 0.403 | 0.358 | 0.435 | 0.299 | 0.32 | 0.299 | 0.271 | 0.301 | 0.238 | 0.264 | 0.263 | 0.284 | 0.263 | 0.706 | 0.691 | 0.639 | 0.707 | 0.555 | 0.28 |
| LXF-289 | 0.57 | 0.642 | 0.57 | 0.645 | 0.553 | 0.729 | 0.792 | 0.846 | 0.761 | 0.773 | 0.973 | 0.917 | 0.971 | 0.943 | 0.993 | 1.03 | 1.02 | 1.03 | 0.91 | 0.836 |
| NCI-H2405 | 0.49 | 0.489 | 0.488 |  | 0.498 | 0.434 | 0.445 | 0.302 | 0.332 | 0.962 | 1.05 | 0.98 | 1.04 | 0.704 | 0.679 | 0.799 | 0.578 | 0.87 | 0.699 | 0.382 |
| NCI-H2023 | 0.408 | 0.428 | 0.424 | 0.355 | 0.112 | 0.225 | 0.286 | 0.191 | 0.243 | 0.228 | 0.201 | 0.207 | 0.244 | 0.215 | 0.616 | 0.506 | 0.561 | 0.516 | 0.563 | 0.248 |
| HCC-15 | 0.74 | 0.641 | 0.631 | 0.562 | 0.653 | 0.604 | 0.672 | 0.77 | 0.686 | 0.226 | 0.24 | 0.212 | 0.203 | 0.226 | 0.792 | 0.699 | 0.845 | 0.841 | 0.879 | 0.72 |
| HCC-44 | 0.912 | 0.779 | 0.851 | 0.874 | 0.805 | 0.633 | 0.59 | 0.509 | 0.543 | 0.494 | 0.657 | 0.49 | 0.617 | 0.578 | 0.601 | 0.497 | 0.56 | 0.644 | 0.608 | 0.436 |
| COR-L23 | 0.256 | 0.251 | 0.232 | 0.279 | 0.303 | 0.751 | 0.844 | 0.932 | 0.893 | 0.214 | 0.227 | 0.194 | 0.205 | 0.196 | 0.607 | 0.609 | 0.508 | 0.611 | 0.71 | 0.749 |
| HCC-78 | 0.367 | 0.438 | 0.4 | 0.447 | 0.511 | 0.206 | 0.23 | 0.19 | 0.223 | 0.933 | 0.877 | 0.887 | 0.987 | 0.893 | 0.26 | 0.284 | 0.365 | 0.317 | 0.366 | 0.19 |
| NCI-H1355 | 0.35 | 0.282 | 0.27 | 0.285 | 0.284 | 0.454 | 0.418 | 0.331 | 0.441 | 0.9 | 0.92 | 1.1 | 0.853 | 1.08 | 0.719 | 0.512 | 0.483 | 0.51 | 0.587 | 0.264 |
| NCI-H838 | 0.22 | 0.205 | 0.207 | 0.217 | 0.179 | 0.477 | 0.512 | 0.396 | 0.432 | 0.267 | 0.256 | 0.254 | 0.247 | 0.244 | 0.91 | 0.914 | 0.868 | 0.863 | 0.743 | 0.387 |
| NCI-H2126 | 0.336 | 0.38 | 0.346 | 0.321 | 0.339 | 0.514 | 0.459 | 0.414 | 0.467 | 0.633 | 0.713 | 0.672 | 0.665 | 0.738 | 0.664 | 0.689 | 0.727 | 0.71 | 0.634 | 0.459 |
| BEN | 0.457 | 0.521 | 0.424 | 0.489 | 0.482 | 0.638 | 0.71 | 0.555 | 0.627 | 0.886 | 0.713 | 0.897 | 0.704 | 0.777 | 1.11 | 0.973 | 1.07 | 0.856 | 0.91 | 0.51 |
| LCLC-103H | 0.402 | 0.445 | 0.477 | 0.406 | 0.507 | 0.557 | 0.596 | 0.583 | 0.543 |  | 0.465 | 0.416 | 0.469 | 0.424 | 0.774 | 0.875 | 0.909 | 0.967 | 0.883 | 0.621 |
| EKVX | 0.36 | 0.384 |  | 0.39 | 0.268 |  | 0.463 | 0.275 | 0.412 | 0.375 | 0.511 | 0.466 |  | 0.35 | 0.764 | 0.812 | 0.824 | 0.643 | 0.656 | 0.364 |
| NCI-H661 | 0.433 | 0.395 | 0.391 | 0.386 | 0.351 | 0.439 | 0.511 | 0.371 | 0.346 | 0.9 | 0.913 | 0.946 | 0.939 | 0.895 | 0.469 | 0.462 | 0.971 | 0.724 | 1.01 | 0.356 |
| NCI-H1651 | 0.492 | 0.486 | 0.507 | 0.523 | 0.543 | 0.529 | 0.543 | 0.622 | 0.505 | 0.565 | 0.62 | 0.527 | 0.632 | 0.588 | 0.973 | 0.992 | 0.967 | 0.944 | 0.959 | 0.585 |
| NCI-H2087 | 0.186 | 0.245 | 0.227 | 0.238 | 0.221 | 0.894 | 0.837 | 0.93 | 0.805 | 0.642 | 0.666 | 0.66 | 0.555 | 0.703 | 0.931 | 1.14 | 0.772 | 1.29 | 0.932 | 0.859 |
| NCI-H1944 | 0.288 | 0.307 | 0.298 | 0.299 | 0.292 |  | 0.352 | 0.317 | 0.345 |  | 0.618 |  | 0.572 | 0.566 | 0.723 | 0.726 | 0.782 | 0.795 | 0.646 | 0.334 |
| LC-2-ad | 0.469 | 0.532 | 0.466 | 0.542 | 0.436 | 0.435 | 0.467 | 0.409 | 0.412 | 0.265 | 0.29 | 0.268 | 0.248 | 0.247 | 0.859 | 0.698 | 0.812 | 0.813 | 0.817 | 0.46 |
| COR-L 105 | 0.353 | 0.45 | 0.391 | 0.421 | 0.33 | 0.396 | 0.395 | 0.412 | 0.428 | 1.04 | 1.09 | 1.1 | 0.989 | 0.997 | 0.956 | 0.794 | 0.869 | 0.773 | 0.715 | 0.356 |
| NCI-H1437 | 0.316 | 0.331 | 0.301 | 0.23 | 0.289 | 0.432 | 0.403 | 0.421 | 0.382 | 0.312 | 0.355 | 0.37 | 0.325 | 0.311 | 1.03 | 0.968 | 0.885 | 0.922 | 0.763 | 0.421 |
| H3255 | 0.358 | 0.332 | 0.363 | 0.306 | 0.318 | 0.489 | 0.542 | 0.456 | 0.407 | 0.57 | 0.59 | 0.583 | 0.54 | 0.573 | 0.582 | 0.713 | 0.72 | 0.654 | 0.594 | 0.501 |
| NCI-H2009 | 0.251 | 0.309 | 0.28 | 0.279 | 0.23 | 0.641 | 0.756 | 0.923 | 0.793 | 1 | 1.01 | 1.1 | 1.09 | 1.01 | 1.08 | 1.16 | 1.11 | 1.24 | 1.21 | 0.87 |
| NCI-H1755 | 0.432 | 0.429 | 0.412 | 0.442 | 0.393 |  | 0.402 | 0.482 | 0.423 | 0.357 | 0.411 | 0.427 | 0.446 | 0.463 | 0.869 | 0.856 | 0.826 | 0.815 | 0.548 | 0.387 |
| HOP-62 | 0.454 | 0.446 | 0.497 | 0.447 | 0.571 | 0.652 | 0.842 | 0.71 | 0.557 | 0.286 | 0.325 | 0.323 | 0.462 | 0.404 | 0.932 | 0.809 | 1.1 | 1.06 | 1.17 | 0.676 |
| LOU-NH91 | 0.571 | 0.572 | 0.547 | 0.54 | 0.545 | 0.497 | 0.492 | 0.432 | 0.501 | 0.363 | 0.312 | 0.402 | 0.365 | 0.376 | 0.617 | 0.686 | 0.59 | 0.698 | 0.592 | 0.499 |
